Assays:
C57bl6j mice [1] = assay: Lipid excretion in feces of mice fed a high fat diet; type: in vivo
From the text: (§1) Adult male […] purchased at 8 week of age from Janvier Elevage (Le Genest-St-Isle, France) were individually housed and maintained ad libitum on high fat diet and water for 2 weeks. Seven mice were randomly allocated in 3 groups and fed with a high fat diet (lipids represented 50% of daily energy) during 2 weeks. For one kilogram, the composition of the high fat diet was: 235 g of casein, 201 g of saccharose, 3.5 g L-cystine, 85 g of starch, 116 g of maltodextrine, 60 g of cellulose, 12 g of vitamins mix, 51.5 g de mineral mix and 236 g of lard and 13 g of canola oil (UPAE, Jouy en Josas, France). Then, N-oleoyl-ethanolamide or (Z)-(R)-9-octadecenamide, N-(2-hydroxyethyl, 1-methyl) was added to the diet at the concentration of 100 mg/kg/bw. The mice are kept under treatment during 4 weeks. During the nutritional intervention, daily food intake has been monitored and the mice were weighted 3 times per week. During the last week of the experiment, the mice were kept during 5 days in metabolic cages to collect urine and feces. Lipids were extracted from feces after acidification using chloridric acid using chloroform/methanol (2:1 v/v) method. Total lipids were weighted, results were reported in mg of lipids per g of feces weight. Fat absorption was assessed using the following formula: Fat Absorption (% intake)=100*((Fat intake, g/d-fecal fat excretion, g/d)/fat intake). Example 1 was repeated except that N-oleoyl-ethanolamide as added to the diet at two different concentrations (0.1 or 1 g/kg/bw).

C57bl6j mice [2] = assay: Intestinal lipid (fat) absorption in mice fed a high fat diet; type: in vivo
From the text: as §1

[3] = given orally in diet at 0.1 g/kg/bw (group C1 of Table 2), Example 2
[4] = given orally in diet at 100 mg/kg/bw, 4 weeks, feces collected over 5 days in last week, Example 1
[5] = given orally in diet at 1 g/kg/bw (group C2 of Table 2), Example 2
[6] = given orally in diet at 100 mg/kg/bw, 4 weeks, Fat Absorption (% intake), Example 1

CCCCCCCC/C=C\CCCCCCCC(=O)NCCO [C1, N-oleoyl-ethanolamide]
Lipid Excretion (mg/g of Feces) MV (C57bl6j mice [1]; [3]): 55.31 mg/g of Feces
Lipid Excretion (mg/g of Feces) MV (C57bl6j mice [1]; [4]): 53.7 mg/g of Feces
Lipid Excretion (mg/g of Feces) MV (C57bl6j mice [1]; [5]): 45.56 mg/g of Feces
Intestinal Lipid Absorption (%) MV (C57bl6j mice [2]; [3]): 97.4%
Intestinal Lipid Absorption (%) MV (C57bl6j mice [2]; [6]): 95.61%
Intestinal Lipid Absorption (%) MV (C57bl6j mice [2]; [5]): 97.76%

CCCCCCCC/C=C\CCCCCCCC(=O)N[C@H](C)CO [C2, (Z)-(R)-9-octadecenamide, N-(2-hydroxyethyl,1-methyl)]
Lipid Excretion (mg/g of Feces) MV (C57bl6j mice [1]; [4]): 65.6 mg/g of Feces
Intestinal Lipid Absorption (%) MV (C57bl6j mice [2]; [6]): 95.05%
